A word on the TGI: it is the concentration at which net growth stops. As a reminder, the GI50 is the concentration that inhibits growth by half.

The structures appear in SMILES notation. Several values for one entry are separate records, joined by “and”; a condition that tells them apart may be missing. Equal entries are not always repeated.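 Compound exposure: 48 hours, 5 concentrations, 96-well plates. Here, GI50 denotes the concentration required for 50% inhibition of growth. The concentration for full growth arrest is given as TGI.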 Some results are limits rather than exact numbers.

What all share (test): DTP human tumour cell line panel, 48 h
Test [1] has as its system NCI-H460 lung.
Test [2] relates to MOLT-4 leukemia.
Test [3] relates to IGROV1 ovarian.
The subject of test [4] is OVCAR-5 ovarian.
Test [5] relates to NCI-H226 lung.
Test [6] concerns UACC-257 melanoma.
The test system of test [7] is OVCAR-4 ovarian.
Test [8] has as its system HCT-15 colon.
The test system of test [9] is HOP-62 NSCLC.
For test [10], the system named is SK-MEL-2 melanoma.

Take `C/C(CC(O)(C(F)(F)F)C(F)(F)F)=N\N`: the TGI in test [1], in test [2], in [3], in test [4], in [5] and in [6] was more than 10 µM in each case. Moreover, the TGI in test [7], in test [8], in [9] and in test [10] was more than 10 µM each time.
As for `CCc1cccc(C(C)CC)c1N=C(NC(=O)c1ccccc1C(=O)NC(=Nc1c(CC)cccc1C(C)CC)SC)SC` (configuration not stated), the TGI in test [1] was more than 100 µM; in test [2] it was more than 100 µM; in test [3], more than 100 µM; in test [4], more than 100 µM; in test [5] it was 57.1 µM; in test [6], more than 100 µM. Besides, the TGI in [7], in test [8], in test [9] and in [10] was more than 100 µM in each case.
For `CC(C)=CC/C=C(/C)[C@H]1CC[C@]2(C)[C@@H]1CC[C@@H]1[C@@]3(C)CCC(=O)NC(C)(C)[C@@H]3CC[C@]12C`, the GI50 in test [1] is 33.9 µM; in test [2], 15.4 µM; in [3] it was 10.6 µM; in [4], 19.3 µM; in test [5], 19.1 µM; in test [6], 31.7 µM. The GI50 was 21.9 µM in [7], 15.4 µM in test [8], 20.8 µM in [9] and 27.6 µM in test [10]. Also, the TGI in [1] is more than 100 µM; in [2], 49.6 µM; in [3], 26.5 µM; in [4], 39.5 µM; in test [5] it was 43.1 µM; in test [6], more than 100 µM. Also, the TGI in test [7] is 75 µM; in [8], 32.1 µM; in [9], 44.7 µM; in test [10] it was 82.8 µM.
In the case of `CCN1CCN(CCOc2ccc(CNc3ccc4nc(CCC5CCCCC5)[nH]c4c3)cc2)CC1`, the GI50 was 2.47 µM in test [1]; 1.87 µM in [2]; 2.83 µM in test [3]; 2.33 µM in test [4]; 1.99 µM in test [5]; 1.85 µM in test [6]. The GI50 in [7] was 2.61 µM; in [8], 1.43 µM; in test [9] it was 1.99 µM; in test [10] it was 1.92 µM. The TGI amounted to 7.27 µM in test [1]; 6.09 µM in [2]; 11 µM in test [3]; 7.18 µM in [4]; 4.94 µM in test [5]; 4.12 µM in [6]. Besides, the TGI in [7] stood at 11.1 µM; in [8] it was 3.41 µM; in [9] it was 4.63 µM; in test [10], 3.77 µM.
With `Nc1nc(N)c2cc(CNc3ccc(Cl)c(Cl)c3)ccc2n1`, the GI50 is 0.0609 µM in test [1]; 0.485 µM in [2]; 0.579 µM in test [3]; 0.756 µM in test [4]; 1.58 µM in test [5]; 0.891 µM in [6]. The GI50 in [7] is 1.16 µM; in test [8], 0.365 µM; in test [9] it was 0.81 µM; in [10], 1.52 µM. Further, the TGI stood at 1.32 µM in [1]; 2.02 µM in test [2]; 1.92 µM in test [3]; 2.05 µM in test [4]; 3.21 µM in test [5]; 2.24 µM in [6]. Further, the TGI worked out at 2.37 µM in test [7], 1.72 µM in [8], 2.05 µM in [9] and 3.01 µM in test [10].
Take `Cc1cccc(CN(C)c2ccc(CO)c(Cl)c2)c1`: the GI50 in test [1] is 2.04 µM; in test [2], 22.2 µM; in [3], 0.475 µM; in [4], 0.881 µM; in test [5], 0.123 µM; in test [6] it was 0.565 µM. The GI50 in [7] is 2.61 µM; in test [8], 19.8 µM; in test [9], 7.41 µM; in test [10], 8.54 µM. Further, the TGI was 15.8 µM in test [1]; more than 75.5 µM in [2]; 2.67 µM in [3]; 4.87 µM in test [4]; 0.279 µM in [5]; 2.22 µM in test [6]. Moreover, the TGI in test [7] is 25.3 µM; in [8], more than 100 µM; in test [9], 40.6 µM; in test [10] it was 36 µM.
Consider `O=C1NC(=NCC(CO)c2ccccc2)S/C1=C\c1ccc2ncccc2c1` (configuration not stated), for which the GI50 in test [1] was more than 16.1 µM; in test [2] it was more than 25 µM; in test [3], 19 µM; in test [4] it was more than 25 µM; in test [5] it was more than 25 µM; in [6], more than 25 µM. The GI50 in test [7] is more than 22.1 µM; in test [8] it was more than 21.8 µM; in test [9], 23.9 µM; in test [10], more than 25 µM. Moreover, the total growth inhibition concentration (TGI) in [1], in test [2], in [3], in [4], in [5] and in [6] was more than 25 µM throughout. In addition, the TGI in test [7], in [8], in [9] and in test [10] was more than 25 µM in each case.
Regarding `CC1=C(N2CC2)C(=O)C(CO)=C(N2CC2)C1=O`, the GI50 in test [1] is 0.00476 µM; in test [3], 0.0168 µM; in test [4], 0.194 µM; in test [6] it was 0.0761 µM; in test [7], 0.195 µM; in test [8], 0.02 µM. The GI50 in test [9] was 0.0219 µM. Besides, the TGI in test [1] was 1.85 µM; in [2] it was 5.88 µM; in [3], 0.0703 µM and 0.0518 µM; in test [4] it was 0.74 µM; in [5] it was 0.166 µM; in test [6], 0.527 µM and 2.41 µM. For the same molecule, the TGI was 0.904 µM and 0.587 µM in test [7]; 0.584 µM in [8]; 0.0569 µM in [9]; 0.0988 µM and 0.585 µM in test [10].

Values taken from PubChem BioAssay (NCI).
